Experimental data taken from patent publication US9765067B2, “Thiophen-2-yl-pyridin-2-yl-1H-pyrazole-4-carboxylic acid derivatives and the use thereof as soluble guanylate cyclase activators” (Novartis AG, priority 2014, dated 2017).

What follows are compounds tested against T1, soluble guanylate cyclase (human GUCYA3/GUCYB3) overexpressed in CHO cells (Homo sapiens, UniProt Q02108+Q02153) (assay: CHO cellular assay (cGMP production, HTRF)). Details: CHO K1 clone 8E10 overexpressing human sGC, Cisbio HTRF, 1 h room temperature, 1 mM IBMX, 20 uM ODQ, minimum quantification limit 0.5 nM.
T1 construct: expressed in transfected cells
T1 sequence (Q02108 1-690 partner): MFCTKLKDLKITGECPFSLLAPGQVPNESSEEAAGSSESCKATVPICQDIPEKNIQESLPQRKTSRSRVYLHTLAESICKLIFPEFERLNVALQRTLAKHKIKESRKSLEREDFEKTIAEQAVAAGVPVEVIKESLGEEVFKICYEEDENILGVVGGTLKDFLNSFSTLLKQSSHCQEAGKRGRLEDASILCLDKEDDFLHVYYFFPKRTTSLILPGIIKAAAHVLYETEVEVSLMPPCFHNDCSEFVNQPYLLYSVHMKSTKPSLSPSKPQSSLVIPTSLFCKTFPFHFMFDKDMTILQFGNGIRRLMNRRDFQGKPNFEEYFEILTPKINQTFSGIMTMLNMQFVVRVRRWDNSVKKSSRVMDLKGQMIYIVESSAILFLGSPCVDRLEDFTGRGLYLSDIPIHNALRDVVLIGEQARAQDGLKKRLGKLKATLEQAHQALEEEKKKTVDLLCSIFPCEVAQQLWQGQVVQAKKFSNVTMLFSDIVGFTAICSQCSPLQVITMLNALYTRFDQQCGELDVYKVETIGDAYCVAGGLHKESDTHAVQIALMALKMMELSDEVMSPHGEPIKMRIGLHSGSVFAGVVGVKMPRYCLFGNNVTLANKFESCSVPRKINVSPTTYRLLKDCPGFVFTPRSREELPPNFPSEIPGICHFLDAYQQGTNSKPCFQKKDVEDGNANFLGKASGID
T1 sequence (Q02153 1-619): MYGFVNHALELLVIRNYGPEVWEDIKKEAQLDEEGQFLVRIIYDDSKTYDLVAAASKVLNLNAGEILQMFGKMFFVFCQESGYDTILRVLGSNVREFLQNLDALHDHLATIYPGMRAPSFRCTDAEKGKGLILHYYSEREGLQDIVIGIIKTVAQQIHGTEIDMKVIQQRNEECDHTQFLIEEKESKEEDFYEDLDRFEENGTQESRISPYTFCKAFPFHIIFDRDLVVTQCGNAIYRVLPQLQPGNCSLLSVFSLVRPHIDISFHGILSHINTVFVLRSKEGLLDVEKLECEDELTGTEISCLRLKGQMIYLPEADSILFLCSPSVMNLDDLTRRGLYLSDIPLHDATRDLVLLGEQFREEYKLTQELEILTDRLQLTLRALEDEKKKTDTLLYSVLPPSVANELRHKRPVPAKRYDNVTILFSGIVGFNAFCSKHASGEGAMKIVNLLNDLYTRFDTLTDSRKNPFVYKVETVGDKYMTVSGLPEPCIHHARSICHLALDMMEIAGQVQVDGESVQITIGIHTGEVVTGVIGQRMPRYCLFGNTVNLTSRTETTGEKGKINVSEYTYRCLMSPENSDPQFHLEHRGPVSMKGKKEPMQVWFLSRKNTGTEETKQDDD
Type: cell-based
Excerpt: Chinese hamster ovary (CHO) cells overexpressing soluble guanylate cyclase were generated to test the effect of sGC activators in a cellular context. Human cDNAs for GUCYA3 (RefSeq: NM_000856.3) and GUCYB3 (RefSeq: NM_000857.1) were amplified by PCR from a HUVEC (Human Umbilical Vein Endothelial Cells) cDNA library and cloned into mammalian expression vectors. CHO K1 cells (ATCC CCL-61) were transfected using Lipofectamine 2000 following manufacturer's instructions and stably expressing clones were identified by antibiotic selection. CHO GUCY clone 8E10 was used for subsequent experiments.
Cells were seeded at a density of 3000 cells/well in white 384-well proxyplates (Perkin Elmer) and incubated overnight, then the medium was removed and cells were washed with assay buffer (HBSS, 0.1% BSA, 1 mM IBMX, 20 uM ODQ). sGC activators were serially diluted in DMSO, then diluted in assay buffer prior to adding to cells (10 ul/well, final DMSO concentration 0.5%). Cells were incubated with compounds for 1 h room temperature, then assayed for cGMP production using Cisbio cGMP HTRF kit (62GM2PEC) according to manufacturer's instructions.
The EC50s are calculated based on the amount of cGMP interpolated from the standard curve, using a 4-parameter sigmoidal dose-response.

EC50 [nM] | Structure (SMILES)
≤ 0.5 | CCc1c(C(=O)O)cnn1-c1cccc(-c2sccc2COc2ccc(C3CCN(C(=O)C4CC4)CC3)cc2C)n1 [Example 6-9, 1-(6-(3-((4-(1-(Cyclopropanecarbonyl)piperidin-4-yl)-2-methylphenoxy)methyl)thiophen-2-yl)pyridin-2-yl)-5-ethyl-1H-pyrazole-4-carboxylic acid]
1 | Cc1cc(COc2ccc(C3CC(C)(C)N(C(=O)C4CC4)C(C)(C)C3)cc2C)c(-c2cccc(-n3ncc(C(=O)O)c3C(F)(F)F)n2)s1 [Example 6-10, 1-(6-(3-((4-(1-(Cyclopropanecarbonyl)-2,2,6,6-tetramethylpiperidin-4-yl)-2-methylphenoxy)methyl)-5-methylthiophen-2-yl)pyridin-2-yl)-5-(trifluoromethyl)-1H-pyrazole-4-carboxylic acid]
≤ 0.5 | CCc1cc(OCc2cc(C)sc2-c2cccc(-n3ncc(C(=O)O)c3C(F)(F)F)n2)ccc1C1CCN(C(=O)C2CC2)CC1 [Example 6-11, 1-(6-(3-((4-(1-(Cyclopropanecarbonyl)piperidin-4-yl)-3-ethylphenoxy)methyl)-5-methylthiophen-2-yl)pyridin-2-yl)-5-(trifluoromethyl)-1H-pyrazole-4-carboxylic acid]
1 | Cc1cc(COc2ccc(C3CCN(C(=O)C4CC4)CC3)c(C(C)C)c2)c(-c2cccc(-n3ncc(C(=O)O)c3C(F)(F)F)n2)s1 [Example 6-12, 1-(6-(3-((4-(1-(Cyclopropanecarbonyl)piperidin-4-yl)-3-isopropylphenoxy)methyl)-5-methylthiophen-2-yl)pyridin-2-yl)-5-(trifluoromethyl)-1H-pyrazole-4-carboxylic acid]
1 | Cc1cc(COc2ccc(C3CCN(C(=O)C4CC4)CC3)cc2F)c(-c2cccc(-n3ncc(C(=O)O)c3C(F)(F)F)n2)s1 [Example 6-13, 1-(6-(3-((4-(1-(Cyclopropanecarbonyl)piperidin-4-yl)-2-fluorophenoxy)methyl)-5-methylthiophen-2-yl)pyridin-2-yl)-5-(trifluoromethyl)-1H-pyrazole-4-carboxylic acid]
3 | Cc1cc(COc2ccc(C3CCN(C(=O)C4CC4)CC3)c(F)c2)c(-c2cccc(-n3ncc(C(=O)O)c3C(F)(F)F)n2)s1 [Example 6-14, 1-(6-(3-((4-(1-(Cyclopropanecarbonyl)piperidin-4-yl)-3-fluorophenoxy)methyl)-5-methylthiophen-2-yl)pyridin-2-yl)-5-(trifluoromethyl)-1H-pyrazole-4-carboxylic acid]
9.5 | CCc1cc(C2CCN(C(=O)C3CC3)CC2)ccc1OCc1cc(C)sc1-c1cccc(-n2ncc(C(=O)O)c2C(F)(F)F)n1 [Example 6-15, 1-(6-(3-((4-(1-(Cyclopropanecarbonyl)piperidin-4-yl)-2-ethylphenoxy)methyl)-5-methylthiophen-2-yl)pyridin-2-yl)-5-(trifluoromethyl)-1H-pyrazole-4-carboxylic acid]
6.3 | Cc1cc(COc2ccc(C3CCN(CC(F)(F)F)CC3)cc2C)c(-c2cccc(-n3ncc(C(=O)O)c3C(F)(F)F)n2)s1 [Example 6-16, 1-(6-(5-Methyl-3-((2-methyl-4-(1-(2,2,2-trifluoroethyl)piperidin-4-yl)phenoxy)methyl)thiophen-2-yl)pyridin-2-yl)-5-(trifluoromethyl)-1H-pyrazole-4-carboxylic acid]
14 | CCc1cc(COc2ccc(C3CCN(CC(F)(F)F)CC3)cc2C)c(-c2cccc(-n3ncc(C(=O)O)c3C(F)(F)F)n2)s1 [Example 6-17, 1-(6-(5-Ethyl-3-((2-methyl-4-(1-(2,2,2-trifluoroethyl)piperidin-4-yl)phenoxy)methyl)thiophen-2-yl)pyridin-2-yl)-5-(trifluoromethyl)-1H-pyrazole-4-carboxylic acid]

Continued, compound first:

Structure (SMILES) | EC50 [nM]
Cc1cc(C2CCN(C(=O)C3CC3)CC2)ccc1OCc1ccsc1-c1cccc(-n2ncc(C(=O)O)c2C(F)(F)F)c1 [Example 6-1, 1-(3-(3-((4-(1-(Cyclopropanecarbonyl)piperidin-4-yl)-2-methylphenoxy)methyl)thiophen-2-yl)phenyl)-5-(trifluoromethyl)-1H-pyrazole-4-carboxylic acid] | 1
Cc1c(OCc2ccsc2-c2cccc(-n3ncc(C(=O)O)c3C(F)(F)F)n2)ccc(C2CCN(C(=O)C3CC3)CC2)c1C [Example 6-2, 1-(6-(3-((4-(1-(Cyclopropanecarbonyl)piperidin-4-yl)-2,3-dimethylphenoxy)methyl)thiophen-2-yl)pyridin-2-yl)-5-(trifluoromethyl)-1H-pyrazole-4-carboxylic acid] | 33
Cc1cc(C2CCN(C(=O)C3CC3)CC2)ccc1OCc1cc(Cl)sc1-c1cccc(-n2ncc(C(=O)O)c2C(F)(F)F)n1 [Example 6-3, 1-(6-(5-Chloro-3-((4-(1-(cyclopropanecarbonyl)piperidin-4-yl)-2-methylphenoxy)methyl)thiophen-2-yl)pyridin-2-yl)-5-(trifluoromethyl)-1H-pyrazole-4-carboxylic acid] | ≤ 0.5
COc1cc(C2CCN(C(=O)C3CC3)CC2)ccc1OCc1ccsc1-c1cccc(-n2ncc(C(=O)O)c2C(F)(F)F)n1 [Example 6-4, 1-(6-(3-((4-(1-(Cyclopropanecarbonyl)piperidin-4-yl)-2-methoxyphenoxy)methyl)thiophen-2-yl)pyridin-2-yl)-5-(trifluoromethyl)-1H-pyrazole-4-carboxylic acid] | 2
COc1cc(OCc2ccsc2-c2cccc(-n3ncc(C(=O)O)c3C(F)(F)F)n2)ccc1C1CCN(C(=O)C2CC2)CC1 [Example 6-5, 1-(6-(3-((4-(1-(Cyclopropanecarbonyl)piperidin-4-yl)-3-methoxyphenoxy)methyl)thiophen-2-yl)pyridin-2-yl)-5-(trifluoromethyl)-1H-pyrazole-4-carboxylic acid] | 1
CCc1cc(OCc2ccsc2-c2cccc(-n3ncc(C(=O)O)c3C(F)(F)F)n2)ccc1C1CCN(C(=O)C2CC2)CC1 [Example 6-6, 1-(6-(3-((4-(1-(Cyclopropanecarbonyl)piperidin-4-yl)-3-ethylphenoxy)methyl)thiophen-2-yl)pyridin-2-yl)-5-(trifluoromethyl)-1H-pyrazole-4-carboxylic acid] | ≤ 0.5
Cc1cc(C2CCN(C(=O)C3CC3)CC2)ccc1OCc1cc(C2CC2)sc1-c1cccc(-n2ncc(C(=O)O)c2C(F)(F)F)n1 [Example 6-7, 1-(6-(3-((4-(1-(Cyclopropanecarbonyl)piperidin-4-yl)-2-methylphenoxy)methyl)-5-cyclopropylthiophen-2-yl)pyridin-2-yl)-5-(trifluoromethyl)-1H-pyrazole-4-carboxylic acid] | 1.4
Cc1cc(C2CCN(C(=O)C3CC3)CC2)ccc1OCc1c(-c2cccc(-n3ncc(C(=O)O)c3C(F)(F)F)n2)sc(C)c1C [Example 6-8, 1-(6-(3-((4-(1-(Cyclopropanecarbonyl)piperidin-4-yl)-2-methylphenoxy)methyl)-4,5-dimethylthiophen-2-yl)pyridin-2-yl)-5-(trifluoromethyl)-1H-pyrazole-4-carboxylic acid] | ≤ 0.5
